In one data set the target is T1, human Orexin 1 receptor (Homo sapiens, UniProt O43613).
T1 construct: stably expressing the full-length human Orexin 1 receptor; expressed in transfected cells; host or cells: CHO-K1 (CHO-K1/hOx1), co-expressing aequorin
T1 sequence (O43613 1-425): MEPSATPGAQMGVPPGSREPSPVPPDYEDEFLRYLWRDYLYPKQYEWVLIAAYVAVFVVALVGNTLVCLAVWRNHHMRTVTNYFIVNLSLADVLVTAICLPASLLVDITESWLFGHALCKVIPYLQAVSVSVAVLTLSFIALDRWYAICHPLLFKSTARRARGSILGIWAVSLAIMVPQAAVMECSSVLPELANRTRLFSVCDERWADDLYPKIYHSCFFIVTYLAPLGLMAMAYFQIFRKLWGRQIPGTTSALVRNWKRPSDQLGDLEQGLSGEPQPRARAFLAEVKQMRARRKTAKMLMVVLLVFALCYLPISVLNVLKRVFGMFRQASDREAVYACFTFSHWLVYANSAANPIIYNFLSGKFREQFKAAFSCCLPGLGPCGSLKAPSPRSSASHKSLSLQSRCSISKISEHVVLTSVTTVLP
Kind of data set: Assay A: in vitro testing of OX1R potency, OX1R IP1. Type of data set: cell-based. Conditions: for Kb: 0.5 nM Orexin A concentration; for OX2R Kb/OX1R Kb: selectivity ratio of Assay B and Assay A Kb. From the text: Activation of the orexin receptors expressed in cell lines results in an increase in intracellular IP3 concentration. IP1, a downstream metabolite of IP3, accumulates in cells following receptor activation and is stable in the presence of LiCl. Using Homogeneous Time-Resolved Fluorescence technology with Lumi4-Tb cryptate (commercially available from Cisbio Bioassay.) and a suitable fluorescence plate reader. This functional response is detectable and quantifiable as described in Trinquet et al. Anal. Biochem. 2006, 358, 126-135, Degorce et al. Curr. Chem. Genomics 2009, 3, 22-32. This technique is used to characterize pharmacological modification of the orexin receptors.
A. In Vitro Testing of OX1R Potency: OX1R IP1
IP1 measurements are performed in CHO-K1 cells stably expressing the full-length human Orexin 1 receptor and the aequorin photoprotein. Cells are cultivated in Ham's nutrient mixture F12 medium with 10% fetal calf serum, in a 37° C., 95% humidity and 5% CO2 incubator. The CHO-K1/hOx1 cell mass is expanded to larger cell numbers. The cells are obtained as frozen cells in cryo-vials and stored until use at −150° C. The viability of the cells after thawing is >90%. In preparation for the assay, 24 hours before the assay, the cells are thawed at 37° C. and immediately diluted with cell culture medium. After centrifugation, the cell pellet is re-suspended in medium and then distributed into the assay plates with a density of 10000 cells/25 μL per well. The plates are incubated for one hour at room temperature to reduce edge effects before they are incubated for 24 hours at 37° C./5% CO2. Compounds are prepared by an 8-point serial dilution in DMSO and a final dilution step into assay buffer (HBSS with 20 mM HEPES, 0.1% BSA and 50 mM LiCl, pH 7.4) to ensure a final DMSO concentration of 1% in the assay.
On the day of the assay, cells in the plate are washed twice with 60 μL assay buffer (20 μL buffer remained in the wells after washing), followed by adding 5 μL per well of compounds diluted in assay buffer. After 15 minutes of incubation at room temperature 5 μL per well of Orexin A peptide (final concentration: 0.5 nM, and/or 50 nM) dissolved in assay buffer is added to the assay plate. The assay plate is incubated for 60 minutes at 37° C. Then 5 μl per well of Anti-IP1-Cryptate Tb solution and 5 μl per well of IP1-d2 dilution are added and the plate is incubated for a further 60 minutes light protected at room temperature. The emissions at 615 nm and 665 nm (Excitation wavelength: 320 nm) are measured using an EnVision reader (PerkinElmer). The ratio between the emission at 665 nm and 615 is calculated by the reader.
8-point four parametric non-linear curve fitting and determination of IC50 values and Hill slopes is performed using a regular analysis software e.g. AssayExplorer (Accelrys). In order to establish an agonist concentration independent parameter, Kb values are calculated using the following equation: IC50/((2+(A/EC50)^n)^1/n−1) (with A=concentration agonist, EC50=EC50 agonist, n=Hill slope agonist) (see P. Leff, I. G. Dougall, Trends Pharmacol. Sci. 1993, 14(4),110-112).

A short description of data set [1]: Assay C: metabolic stability in human liver microsomes (Human MST). As to conditions: pH 7.6, pooled human liver microsomes, 37° C., read-out: Assay C: Human MST t1/2. In kind it is in vitro ADME. On the procedure:
C. Assessment of Metabolic Stability in Human Liver Microsomes (Human MST)
The metabolic stability of the compounds according to the invention may be investigated as follows:
The metabolic degradation of the test compound is assayed at 37° C. with pooled human liver microsomes. The final incubation volume of 100 μL per time point contains TRIS buffer pH 7.6 at room temperature (0.1 M), MgCl2 (5 mM), microsomal protein (1 mg/mL) and the test compound at a final concentration of 1 μM. Following a short pre-incubation period at 37° C., the reactions are initiated by addition of beta-nicotinamide adenine dinucleotide phosphate, reduced form (NADPH, 1 mM), and terminated by transferring an aliquot into solvent after different time points. After centrifugation (10000 g, 5 min), an aliquot of the supernatant is assayed by LC-MS/MS for the amount of parent compound. The half-life (t1/2) is determined by the slope of the semi-logarithmic plot of the concentration-time profile.
For orientation: Liver microsomes are vesicles of endoplasmic reticulum, rich in cytochrome P450 enzymes.

Where only a bound is given, the exact number is not on record here.

Consider `C[C@@H](CNc1ncc(C(F)(F)F)cn1)N(CC(F)F)C(=O)c1cc(F)cc(F)c1-n1nccn1` [Example 1], for which, on human Orexin 1 receptor, the Kb was found to be 1.17 nM and the “OX2R Kb/OX1R Kb” value was found to be 214. In addition, the half-life at 1 μM in data set [1] is more than 2.17 h.

Regarding `C[C@@H](CNc1ncc(C(F)(F)F)cn1)N(CC(F)F)C(=O)c1cccc(F)c1-n1nccn1` [Example 2], on human Orexin 1 receptor, the Kb was determined as 0.63 nM and the “OX2R Kb/OX1R Kb” value came out at 138. The half-life at 1 μM in data set [1] is more than 2.17 h.

As to `C[C@@H](CNc1ncc(C(F)(F)F)cn1)N(CC(F)F)C(=O)c1cccc(F)c1-c1ncccn1` [Example 3], at human Orexin 1 receptor, the Kb worked out at 0.19 nM and the “OX2R Kb/OX1R Kb” value came to 568. Further, the half-life at 1 μM in data set [1] was more than 2.17 h.

`C[C@@H](CNc1ncc(C(F)(F)F)cn1)N(CC(F)F)C(=O)c1cc(F)ccc1-c1ncccn1` [Example 4]: on human Orexin 1 receptor, the Kb amounted to 0.42 nM and the “OX2R Kb/OX1R Kb” value is reported as 169. Also, the half-life at 1 μM in data set [1] is more than 2.17 h.

Regarding `C[C@@H](CNc1ncc(C(F)(F)F)cn1)N(CC(F)F)C(=O)c1c(F)cccc1-c1ncccn1` [Example 5], on human Orexin 1 receptor, the Kb is 0.67 nM and the “OX2R Kb/OX1R Kb” value amounted to 213. Further, the half-life at 1 μM in data set [1] is more than 2.17 h.

The record behind these values is patent US11324724B2, “N-(2,2-difluoroethyl)-N-[(pyrimidinylamino)propanyl]arylcarboxamides” (Boehringer Ingelheim International GmbH, priority 2017, dated 2022).
